{"source": "patent US20060292254A1", "about": "“Orally and nasally administered appetite suppressant” (priority 2005, published 2006)", "tested_on": "food intake in food deprived rats", "assay": "Effect of intranasal administration of capsaicin on food intake in food deprived rats", "type": "in vivo, Male Sprague-Dawley rats", "settings": "intra-nasal liquid solution, 0.02-2 mg/kg of body weight, food introduced one hour after administration, consumption determined after 4, 12 and 24 hours, mush diet", "text": "Male Sprague-Dawley rats, 150-175 g at the start of the experiments (Charles River Laboratories, Wilmington, Mass.) were housed individually in suspended wire mesh cages. Rats had ad libitum access to tap water and food (Rodent Laboratory Chow No. 5001-pellet form, Purina) on non-testing days. A mush diet, used for experiments on food-deprived animals, and composed of equal parts by weight of ground rodent chow (Purina, #5001-meal form) and a 4% nutrient agar solution (Teklad Diets) was presented to the animals in glass jars. This agar-based chow diet allows for a more accurate measurement of food intake, and has been shown previously to be sufficient for maintaining normal rat growth.\nCapsaicin was prepared as a liquid solution and administered intra-nasally, The drug dosage ranged from 0.02-2 mg/kg of body weight. Control animals were administered placebo formulation without capsaicin. One hour after administration, pre-weighed food jars were introduced into the cage and a sheet of clean white paper placed under each cage to catch any spillage. The amount of food consumed after 4, 12 and 24 hours was determined to the nearest 0.01 g."}
{"molecule": "COc1cc(CNC(=O)CCCC/C=C/C(C)C)ccc1O", "note": "[Capsaicin]", "values": [{"measurement": "amount of food consumed versus placebo", "value": "significantly less food"}]}
